Results on ten compounds are retold here after paper PMC3175280 (Neurochemistry international, 2011).

Values joined by “and” are separate entries in the source; they are usually repeats but may differ in a detail not shown here. Equal values may be shown once.

Assay [1] deals with α1S299C containing GABAA receptors. As to conditions: preliminary dose response (not shown).
In assay [2] the target is T1, S299Cα1β1γ2S GABAA receptors (Rattus norvegicus, UniProt P15431+P18508+P62813, S325C). Nature of the assay: Steroid activation. The settings on record: for current passed, % of 1 mM GABA current: representative trace; for first peak maximal current (curve fit), % of maximal (1 mM GABA) current: first (low concentration) peak of the bimodal dose response; for second peak maximal current (curve fit), % of maximal (1 mM GABA) current: second (high concentration) peak of the bimodal dose response. It is filed as cell-based.

Assay [3] deals with T1, S299Cα1β1γ2S GABAA receptors. The assay can be described thus: Steroid potentiation of submaximal GABA current, S299C receptors. As to conditions: not shown for THDOC. It is filed as cell-based.
For assay [4], the target named is T2, wt α1β1γ2S GABAA receptors (Rattus norvegicus, UniProt P15431+P18508+P62813). The assay can be described thus: Steroid activation. Format: cell-based.
Assay [5] addresses T2, wt α1β1γ2S GABAA receptors. It is filed as cell-based. As to conditions: 0.5 μM ALLO, about EC30, n=3.
The target in assay [6] is T1, S299Cα1β1γ2S GABAA receptors. The assay can be described thus: Extreme low dose assay. As to conditions: for co-application current, scaled to the added currents = 1 / added separate currents, scaled: n=4; for difference between co-applied and added currents: not significant. Format: cell-based.
Assay [7] has the same target. The assay can be described thus: Substituted cysteine accessibility. It is filed as cell-based. The settings on record: for reduction of subsequent ALLO induced current: 0.5 mM pCMBS added with 5 nM ALLO; for inhibition of subsequent ALLO induced current: 0.5 mM pCMBS added with 100 nM ALLO.
Assay [8] deals with α1S299C containing GABAA receptors. As to conditions: ref Williams and Akabas 1999, 2000, 2002; cited from earlier work.
Assay [9] concerns the target T1, S299Cα1β1γ2S GABAA receptors. Nature of the assay: Blocking ALLO-induced current with isoallopregnanolone. It is filed as cell-based.
Assay [10] addresses wild type α1β1γ2S GABAA receptors (Rattus norvegicus, UniProt P15431+P18508+P62813). Nature of the assay: P4S dose response curve, wild type receptors. It is filed as cell-based.
In assay [11] the target is T1, S299Cα1β1γ2S GABAA receptors. Nature of the assay: P4S dose response curve, S299C receptors. It is filed as cell-based.
Assay [12] has the same target. The assay can be described thus: Blocking ALLO-induced current with picrotoxin. Format: cell-based. The settings on record: 1 mM PTN co-applied with 5 nM ALLO.
Assay [13] deals with T2, wt α1β1γ2S GABAA receptors. The assay can be described thus: SCAM with pCMBS on ALLO-induced currents, wt receptors. It is filed as cell-based. The settings on record: pCMBS added in any concentration of ALLO (not shown).
In assay [14] the target is T1, S299Cα1β1γ2S GABAA receptors. As to conditions: pCMBS added in the presence of GABA; ref Williams and Akabas 1999; cited from earlier work.

T1 sequence (P62813 28-455 S325C): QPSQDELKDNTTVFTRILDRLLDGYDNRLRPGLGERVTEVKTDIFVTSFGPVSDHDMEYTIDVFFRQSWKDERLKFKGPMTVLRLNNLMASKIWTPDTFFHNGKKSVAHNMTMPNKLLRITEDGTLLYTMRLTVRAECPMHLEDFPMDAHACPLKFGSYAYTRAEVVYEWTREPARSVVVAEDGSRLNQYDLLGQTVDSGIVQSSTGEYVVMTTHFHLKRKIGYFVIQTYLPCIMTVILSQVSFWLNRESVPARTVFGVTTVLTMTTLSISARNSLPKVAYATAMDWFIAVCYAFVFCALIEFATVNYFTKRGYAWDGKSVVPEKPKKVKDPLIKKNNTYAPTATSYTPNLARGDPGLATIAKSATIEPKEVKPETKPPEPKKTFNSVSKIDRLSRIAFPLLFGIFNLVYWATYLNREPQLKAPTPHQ
T1 sequence (P15431 26-474): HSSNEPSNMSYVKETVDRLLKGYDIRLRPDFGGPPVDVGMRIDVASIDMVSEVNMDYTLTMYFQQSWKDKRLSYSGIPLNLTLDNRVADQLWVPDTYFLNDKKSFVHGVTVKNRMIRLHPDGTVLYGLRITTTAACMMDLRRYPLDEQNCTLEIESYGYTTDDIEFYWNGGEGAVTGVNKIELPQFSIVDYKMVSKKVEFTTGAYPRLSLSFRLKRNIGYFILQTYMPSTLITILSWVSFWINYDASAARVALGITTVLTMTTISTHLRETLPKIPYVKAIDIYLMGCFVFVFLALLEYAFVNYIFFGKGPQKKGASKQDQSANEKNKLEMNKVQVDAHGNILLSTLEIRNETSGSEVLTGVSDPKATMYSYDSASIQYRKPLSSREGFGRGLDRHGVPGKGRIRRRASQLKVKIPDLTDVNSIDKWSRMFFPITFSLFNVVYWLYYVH
T1 sequence (P18508 39-466): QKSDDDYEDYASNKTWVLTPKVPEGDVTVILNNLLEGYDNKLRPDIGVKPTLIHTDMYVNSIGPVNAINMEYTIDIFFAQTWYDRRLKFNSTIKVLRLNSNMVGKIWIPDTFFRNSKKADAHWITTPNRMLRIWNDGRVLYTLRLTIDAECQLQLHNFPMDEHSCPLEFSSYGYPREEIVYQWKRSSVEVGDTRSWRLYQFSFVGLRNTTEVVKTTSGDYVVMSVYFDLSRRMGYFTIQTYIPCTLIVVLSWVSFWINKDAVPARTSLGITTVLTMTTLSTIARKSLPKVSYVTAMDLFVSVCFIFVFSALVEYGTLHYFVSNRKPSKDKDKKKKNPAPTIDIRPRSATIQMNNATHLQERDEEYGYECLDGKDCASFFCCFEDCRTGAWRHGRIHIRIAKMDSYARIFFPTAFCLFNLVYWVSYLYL
T2 sequence (P62813 28-455): as the sequence (P62813 28-455 S325C) above, with C298S counted along it
T2 sequence (P15431 26-474): as the sequence (P15431 26-474) above
T2 sequence (P18508 39-466): as the sequence (P18508 39-466) above
Chain of wild type α1β1γ2S GABAA receptors (P62813 28-455): as the sequence (P62813 28-455 S325C) above, with C298S counted along it
Chain of wild type α1β1γ2S GABAA receptors (P15431 26-474): as the sequence (P15431 26-474) above
Chain of wild type α1β1γ2S GABAA receptors (P18508 39-466): as the sequence (P18508 39-466) above

`CCO` [ethanol, Ethanol]: the “shift of EC50 versus wt” value in [1] is given as “shift to a higher EC50”.
Take `C[C@]12CC[C@@H](O)C[C@@H]1CC[C@@H]1[C@@H]2CC[C@]2(C)[C@@H](C(=O)CO)CC[C@@H]12` [THDOC, 3α,21-hydroxy-5α-pregnan-20-one]: the “current passed, % of 1 mM GABA current” value in [2] (1 nM steroid) is given as “more than 50%”. In assay [2] (100 nM steroid), the “current passed, % of 1 mM GABA current” value is on record as “approximately 50%”. Besides, in assay [2], the “first peak maximal current (curve fit), % of maximal (1 mM GABA) current” value is given as 57 ± 5.3% and the “second peak maximal current (curve fit), % of maximal (1 mM GABA) current” value is on record as 48 ± 0.35%. Further, in [3], the “potentiation of submaximal GABA current” value is on record as “no significant potentiation”.
`CC(=O)[C@H]1CC[C@H]2[C@@H]3CC[C@H]4C[C@H](O)CC[C@]4(C)[C@H]3CC[C@]12C` [ALLO, 3α-hydroxy-5α-pregnan-20-one]: the EC50 in assay [4] amounted to 870 nM; in assay [2] (EC50, first activation curve, first plateau to valley fit as a separate curve), 0.59 nM; in assay [2] (EC50, second activation curve, second plateau to valley fit as a separate curve), 70 nM. Moreover, in [4] (wt receptors, steroid alone, −60 mV), the “maximal steroid induced current, % of 1 mM GABA current” value is listed as “about 43 ± 15%”. In addition, the “potentiation, percent increase of 1 μM GABA current” value in [5] is recorded as 120 ± 28%. The “inward current, % of 1 mM GABA current” value in assay [2] (50 pM steroid, no GABA, n=4) was 6 ± 4%. The “current passed, % of 1 mM GABA current” value in [2] (5 nM steroid) and in assay [2] (100 nM steroid) was “approximately 50%” in each case. Besides, the “first peak maximal current (curve fit), % of maximal (1 mM GABA) current” value in assay [2] was found to be 58 ± 0.25%. Besides, the “second peak maximal current (curve fit), % of maximal (1 mM GABA) current” value in assay [2] is recorded as 42 ± 0.26%. For the same compound, the figures for the “co-application current, scaled to the added currents = 1” value in assay [6] (100 pM ALLO + 100 nM GABA co-applied) and in [6] (5 nM ALLO + 100 nM GABA co-applied) were 1.21 ± 0.45 and 1.27 ± 0.39, respectively. Further, the “added separate currents, scaled” value in assay [6] (100 pM ALLO alone plus 100 nM GABA alone) was determined as 1.0 ± 0.35; in [6] (5 nM ALLO alone plus 100 nM GABA alone) it was 1.0 ± 0.21. Besides, the “difference between co-applied and added currents” value in assay [6] (100 nM GABA and 100 pM ALLO) is 20%; in assay [6] (100 nM GABA and 5 nM ALLO), 27%. For the same compound, the “potentiation of submaximal GABA current” value in [3] is recorded as “no significant potentiation”.
Consider `C[C@]12CC[C@@H](O)C[C@@H]1CC[C@@H]1[C@@H]2CC[C@]2(C)C(c3ccccc3)=CC[C@@H]12` [17-PA, (3α,5α)-17-phenylandrost-16-en-3-ol], for which the “percent change of 100 nM ALLO induced current” value in assay [7] (1 μM 17-PA added with pCMBS, subsequent 100 nM ALLO current) was −4 ± 8%.
In the case of `CC(C)c1cccc(C(C)C)c1O` [propofol], the “response of α1S299C containing receptors compared with wild type” value in assay [8] is “near wild type”.
Turning to `CC(=O)[C@H]1CC[C@H]2[C@@H]3CC[C@H]4C[C@@H](O)CC[C@]4(C)[C@H]3CC[C@]12C` [ISO, 3β-hydroxy-5α-pregnan-20-one], the “block of ALLO induced current” value in [9] (5 nM ISO, 5 nM ALLO) is 90 ± 5% and 80–85%; in assay [9] (5 nM ISO, 100 nM ALLO) it was 86 ± 8% and 80–85%; in assay [9] (100 nM ISO, 5 nM ALLO) it was 73 ± 4%.
For the compound `O=S(=O)(O)C1CCNCC1` [P4S, Piperidine-4-sulfonic acid], the Kd in assay [10] came out at 110000 ± 37000 nM; in [11], 90000 ± 18000 nM. Also, the “maximal current induced, % of 1 mM GABA current” value in [10] (wt, n of 3) amounted to 61 ± 3.7%; in [11] (S299C, n of 3) it was 58 ± 1.6%.
Consider Picrotoxin [PTN], for which the “block of ALLO induced current” value in assay [12] is 80 ± 20% and ~80%.
Take `NCCCC(=O)O` [GABA]: in assay [8], the “response of α1S299C containing receptors compared with wild type” value is given as “near wild type”.
As to `O=S(=O)(O)c1cc[c]([Hg][Cl])cc1` [pCMBS^−, para-chloromercuribenzenesulfonic acid], the “reduction of subsequent ALLO induced current” value in assay [7] (subsequent 5 nM ALLO current) is 28 ± 8%; in assay [7] (subsequent 100 nM ALLO current), 22 ± 20%. Further, the “inhibition of subsequent ALLO induced current” value in assay [7] (subsequent 5 nM ALLO current) and in [7] (subsequent 100 nM ALLO current) was 63 ± 15% in each case. Moreover, the “decrease of ALLO current during co-application” value in assay [7] (0.5 mM pCMBS applied simultaneously with 5 nM ALLO) was found to be 7 ± 29%. For the same compound, the “reduction of ALLO current during co-application” value in assay [7] (0.5 mM pCMBS co-applied with 100 nM ALLO) is reported as 62 ± 17%. In addition, the “percent difference in subsequent ALLO current” value in assay [7] (pCMBS added with 1 μM ISO, subsequent 100 nM ALLO current) was −71 ± 10%; in assay [7] (pCMBS co-applied with 100 nM ISO, subsequent 5 nM ALLO current) it was 3 ± 14%. Further, the “effect on subsequent ALLO currents” value in assay [7] (pCMBS plus 5 nM ISO, subsequent 5 nM or 100 nM ALLO currents (not shown)) is “did not affect”. In [13], the “effect on subsequent ALLO induced currents” value is on record as “did not affect”. Moreover, in [14], the “accessibility of S299C to modification” value is on record as “not accessible to be modified”.

A word on the EC50: it is the concentration giving half of the maximal effect. Read a high EC50 as lower potency in that assay. The term Kd denotes a measure of binding affinity in units of concentration.
